# Results from article PMC10705919 (International Journal of Molecular Sciences, 2023).
# Target: T1, TRPV4 (Canis lupus, UniProt A0A8I3PAV3)
# T1 construct: endogenous channel in MDCK cells
# Assay: whole-cell patch clamp, block of GSK1016790A-evoked currents in MDCK cells
# Assay type: cell-based
# T1 sequence (A0A8I3PAV3 1-828): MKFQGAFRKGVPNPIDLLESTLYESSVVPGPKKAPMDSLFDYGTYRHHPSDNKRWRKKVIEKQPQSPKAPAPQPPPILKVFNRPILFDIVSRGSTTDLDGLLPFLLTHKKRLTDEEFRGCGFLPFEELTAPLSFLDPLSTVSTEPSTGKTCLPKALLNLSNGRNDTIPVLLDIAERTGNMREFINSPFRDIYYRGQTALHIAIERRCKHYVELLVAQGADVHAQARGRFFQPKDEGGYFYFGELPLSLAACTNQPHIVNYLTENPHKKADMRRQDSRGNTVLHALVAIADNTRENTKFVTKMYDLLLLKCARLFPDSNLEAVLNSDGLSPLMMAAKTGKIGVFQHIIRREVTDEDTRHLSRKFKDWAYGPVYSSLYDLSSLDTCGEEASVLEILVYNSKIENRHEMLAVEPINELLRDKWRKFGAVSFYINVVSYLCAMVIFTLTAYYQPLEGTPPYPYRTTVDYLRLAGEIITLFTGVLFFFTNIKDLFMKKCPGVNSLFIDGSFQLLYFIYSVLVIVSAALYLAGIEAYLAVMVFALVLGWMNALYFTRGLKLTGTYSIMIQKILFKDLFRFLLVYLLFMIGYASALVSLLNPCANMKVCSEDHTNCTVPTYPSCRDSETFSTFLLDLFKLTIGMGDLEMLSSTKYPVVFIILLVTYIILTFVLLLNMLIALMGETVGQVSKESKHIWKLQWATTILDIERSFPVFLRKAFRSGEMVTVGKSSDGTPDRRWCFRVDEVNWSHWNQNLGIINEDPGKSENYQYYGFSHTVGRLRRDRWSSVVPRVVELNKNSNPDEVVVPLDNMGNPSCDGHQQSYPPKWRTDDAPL
smiles,measurement,value
"Cc1c(C(=O)Nc2cccc(C(F)(F)F)c2)cc(-c2ccccc2)n1CCCN1CCOCC1 [HC, HC-067047]","whole-cell patch clamp, block of GSK1016790A-evoked currents in MDCK cells",the addition of HC significantly decreases the transient enhancement of dIm induced by GSK alone
